Data taken from US11021481B2, “Substituted isoindolin-1-ones and 2,3-dihydro-1h-pyrrolo[3,4-c]pyridin-1-ones as HPK1 antagonists” (Nimbus Saturn, Inc., priority 2019, dated 2021).
pIC50: −log10 of the molar value.

What follows are compounds tested against HPK1 (Homo sapiens (Human), UniProt Q92918) (assay: HPK1 biochemical enzyme assay (microfluidic mobility shift assay)). Conditions: 1.5 nM HPK1, ATP 1 mM final, 30 min preincubation, 60 min at RT, Caliper EZ Reader; read-out: HPK1 1000UMATP caliper IC50.
Chain of HPK1 (Q92918 whole entry): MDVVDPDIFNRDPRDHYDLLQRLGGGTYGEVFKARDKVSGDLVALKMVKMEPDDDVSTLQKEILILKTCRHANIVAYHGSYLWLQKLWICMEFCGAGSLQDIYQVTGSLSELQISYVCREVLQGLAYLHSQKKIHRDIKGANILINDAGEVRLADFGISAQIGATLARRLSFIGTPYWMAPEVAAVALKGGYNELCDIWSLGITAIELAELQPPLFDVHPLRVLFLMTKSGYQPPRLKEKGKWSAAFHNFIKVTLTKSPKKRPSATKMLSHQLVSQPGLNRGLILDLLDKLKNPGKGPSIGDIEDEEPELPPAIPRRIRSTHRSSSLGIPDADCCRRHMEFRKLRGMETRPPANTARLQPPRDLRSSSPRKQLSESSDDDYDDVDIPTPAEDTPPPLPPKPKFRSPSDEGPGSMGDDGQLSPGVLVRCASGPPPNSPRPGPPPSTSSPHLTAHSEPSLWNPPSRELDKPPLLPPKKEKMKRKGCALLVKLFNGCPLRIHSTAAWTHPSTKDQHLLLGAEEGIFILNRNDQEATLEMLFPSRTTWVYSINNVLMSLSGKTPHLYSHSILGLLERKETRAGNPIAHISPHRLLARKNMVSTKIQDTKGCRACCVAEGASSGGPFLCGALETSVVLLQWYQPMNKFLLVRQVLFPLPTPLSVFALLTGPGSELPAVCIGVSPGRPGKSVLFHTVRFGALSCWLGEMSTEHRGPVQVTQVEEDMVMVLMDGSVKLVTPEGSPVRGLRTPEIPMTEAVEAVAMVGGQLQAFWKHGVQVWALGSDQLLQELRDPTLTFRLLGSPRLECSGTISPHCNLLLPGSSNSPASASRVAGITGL
In short: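 Mobility shift readout of HPK1 activity after a 60 min RT reaction with 1 mM ATP, 1 μM substrate and 5 mM MgCl2. Enzyme/substrate mix was first exposed to compounds for 30 min, using ten-point curves topping at 3 μM final.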

| pIC50 | SMILES |
| --- | --- |
| > 7.00 | CN(Cc1nc(Nc2ccc(-c3cnc4cc(F)ccn34)c3c2C(=O)NC3)ccc1[C@@H]1CCOC1)C1COC1 [I-744, (S)-4-(7-fluoroimidazo [1,2-a]pyridin-3-yl)-7-((6-((methyl(oxe-tan-3-yl)amino)meth-yl)-5-(tetrahydrofuran-3-yl)pyridin-2-yl)amino)isoin-dolin-1-one] |
| > 7.00 | CN(C)Cc1nc(Nc2cnc(-c3ccnc4c3ccn4C)c3c2C(=O)NC3)ccc1N1CCOC2(CC2)C1 [I-839, 7-((6-((dimethylamino)-methyl)-5-(4-oxa-7-azaspiro[2.5]octan-7-yl)pyridin-2-yl)amino)-4-(1-methyl-1H-pyrrolo[2,3-b]pyridin-4-yl)-2,3-dihydro-1H-pyrrolo[3,4-c]pyridin-1-one] |
| > 7.00 | Cc1cccc2c(-c3ccc(Nc4ccc(N5CCC(O)CC5)cn4)c4c3CNC4=O)cnn12 [I-136, 7-[[5-(4-hydroxy-1-piperidyl)-2-pyripyl]amino]-4-(7-methylpyrazolo[1,5-a]pyridin-3-yl)isoindolin-1-one] |
| > 7.00 | CN(C)C[C@H]1CN(c2ccc(Nc3ccc(-c4cnc5cc(F)ccn45)c4c3C(=O)NC4)nc2)CCO1 [I-604, (S)-7-((5-(2-((dimethylamino)-methyl)mor pholino)pyridin-2-yl)amino)-4-(7-fluoroimidazo [1,2-a]pyridin-3-yl)isoindolin-1-one] |
| > 7.00 | O=C1NCc2c(-c3cnc4cc(F)ccn34)ccc(Nc3cc(C4CCOCC4)[nH]n3)c21 [I-381, 4-(7-fluoroimidazo [1,2-a]pyridin-3-yl)-7-((5-(tetrahydro-2H-pyran-4-yl)-1H-pyrazol-3-yl)amino)isoin-dolin-1-one] |
| 6.00 to 7.00 | Cc1ccc2c(-c3ccc(Nc4ccc(N5CCN(C)CC5)cn4)c4c3CNC4=O)c[nH]c2c1 [I-23, 4-(6-methyl-1H-indol-3-yl)-7-[[5-(4-methylpiperazin-1-yl)-2-pyridyl]amino]isoindolin-1-one] |
| 6.00 to 7.00 | COc1ccc2[nH]cc(-c3ncc(Nc4ccc(N5CCN(C)CC5)cn4)c4c3CNC4=O)c2c1 [I-9, 4-(5-methoxy-1H-indol-3-yl)-7-[[5-(4-methylpiperazin-1-yl)-2-pyridyl]amino]-2,3-dihydropyrrolo [3,4-c]pyridin-1-one] |
| < 6.00 | O=C1NCc2c(-c3ccnc4ccnn34)ccc(Nc3ccc(N4CCNCC4)cn3)c21 [I-127, 7-[(5-piperazin-1-yl-2-pyridyl)amino]-4-pyrazolo[1,5-a]pyrimidin-7-yl-isoindolin-1-one] |
| 6.00 to 7.00 | CN(C)CCOc1ccn2c(-c3ccc(Nc4ccc(N5CCC(F)C(O)C5)cn4)c4c3CNC4=O)cnc2c1 (centres unmarked) [I-249] |
| > 7.00 | Cc1ccc2c(-c3ccc(Nc4ccc(N5CCC(O)CC5)cn4)c4c3CNC4=O)cnn2c1 [I-137, 7-[[5-(4-hydroxy-1-piperidyl)-2-pyridyl]amino]-4-(6-methylpyrazolo[1,5-a]pyridin-3-yl)isoindolin-1-one] |
| > 7.00 | O=C1NCc2c(-c3cnc4cc(F)ccn34)ccc(Nc3ccc(N4CCOC[C@@H](O)C4)cn3)c21 [I-339, (S)-4-(7-fluoroimidazo [1,2-a]pyridin-3-yl)-7-((5-(6-hydroxy-1,4-oxazepan-4-yl)pyridin-2-yl)amino)isoin-dolin-1-one] |
| > 7.00 | O=C1NCc2c(-c3cnc4ncccn34)ccc(Nc3ccc(N4CCNCC4)cn3)c21 [I-87, 4-imidazo[1,2-a]pyrimidin-3-yl-7-[(5-piperazin-1-yl-2-pyridyl)amino] isoindolin-1-one] |
| > 7.00 | CN(C)C1(C2CN(c3ccc(Nc4ccc(-c5cnc6cc(F)ccn56)c5c4C(=O)NC5)nc3)CCO2)CC1 (stereo in doubt) [I-687, (S)-7-((5-(2-(1-(dimethylami-no)cyclopropyl)morpholino)py-ridin-2-yl)amino)-4-(7-fluoroimidazo [1,2-a]pyridin-3-yl)isoindolin-1-one] |
| > 7.00 | CN1CCC(c2ccc(Nc3ccc(-c4ccnc5c4ccn5C)c4c3C(=O)NC4)nc2)CC1=O (centres unmarked) [I-271, 4-(1-methyl-1H-pyrrolo[2,3-b]pyridin-4-yl)-7-((5-(1-methyl-2-oxopiperidin-4-yl)pyridin-2-yl)amino)isoin-dolin-1-one] |
| > 7.00 | CN(C)Cc1nc(Nc2ccc(-c3cnc4cc(F)ccn34)c3c2C(=O)NC3)ccc1[C@@H]1CCN(C)C(=O)C1 [I-557, (R)-7-((6-((dimethylamino)-methyl)-5-(1-methyl-2-oxopiperidin-4-yl)pyridin-2-yl)amino)-4-(7-fluoroimidazo [1,2-a]pyridin-3-yl)isoindolin-1-one] |
| > 7.00 | CN(C)Cc1nc(Nc2cnc(-c3cccc4c3ccn4C)c3c2C(=O)NC3)ccc1[C@H]1CCOC1 [I-547, (R)-7-((6-((dimethylamino)-methyl)-5-(tetrahydrofuran-3-yl)pyridin-2-yl)amino)-4-(1-methyl-1H-indol-4-yl)-2,3-dihydro-1H-pyrrolo[3,4-c]pyridin-1-one] |

| pIC50 | SMILES |
| --- | --- |
| > 7.00 | O=C1NCc2c(-c3cnc4cc(F)ccn34)ccc(Nc3ccc(N4CCO[C@@H](CO)C4)cn3)c21 [I-450, 4-(7-fluoroimidazo [1,2-a]pyridin-3-yl)-7-[[5-[(2R)-2-(hydroxymeth-yl)morpholin-4-yl]-2-pyridyl]amino] isoindolin-1-one] |
| < 6.00 | CN1CCN(c2ccc(Nc3cnc(-c4c[nH]c5cc(OCc6ccccc6)ccc45)c4c3C(=O)NC4)nc2)CC1 [I-260, 4-(6-(benzyloxy)-1H-indol-3-yl)-7-((5-(4-methylpiperazin-1-yl)pyridin-2-yl)amino)-2.3-dihydro-1H-pyrrolo[3,4-c]pyridin-1-one] |
| > 7.00 | Cn1ccc2c(-c3ncc(Nc4ccc([C@@H]5CCOC5)c(CN5CC[C@@H](O)C5)n4)c4c3CNC4=O)ccnc21 [I-809, 7-((6-(((R)-3-hydroxypyrroli-din-1-yl)methyl)-5-((S)-THF-3-yl)pyridin-2-yl)amino)-4-(1-methyl-1H-pyrrolo[2,3-b]pyridin-4-yl)-2,3-dihydro-1H-pyrrolo[3,4-c]pyridin-1-one] |
| > 7.00 | CCNC(=O)c1ccc(Nc2ccc(-c3cnc4cc(F)ccn34)c3c2C(=O)NC3)nc1CN(C)C [I-791, 2-((dimethylamino)-methyl)-N-ethyl-6-((7-(7-fluoroimidazo [1,2-a]pyridin-3-yl)-3-oxoisoindolin-4-yl)amino)nico-tinamide] |
| > 7.00 | O=C1NCc2c(-c3ccnc4c3ccn4C(F)F)ccc(Nc3ccc(N4CCNCC4)cn3)c21 [I-119, 4-[l-(difluorometh-yl)pyrrolo[2,3-b]pyridin-4-yl]-7-[(5-piperazin-1-yl-2-pyridyl)amino] isoindolin-1-one] |
| > 7.00 | COC1CN(Cc2nc(Nc3ccc(-c4cnc5cc(F)ccn45)c4c3C(=O)NC4)ccc2[C@H]2CCOC2)C1 [I-548, (R)-4-(7-fluoroimidazo [1,2-a]pyridin-3-yl)-7-((6-((3-methoxyazet-idin-1-yl)methyl)-5-(tetrahydrofuran-3-yl)pyridin-2-yl)amiiio)isoin-dolin-1-one] |
| > 7.00 | Cc1cccc2c(-c3ccc(Nc4ccc(N5CCN(C)CC5)cn4)c4c3CNC4=O)cnn12 [I-69, 7-[[5-(4-methylpiperazin-1-yl)-2-pyridyl]amino]-4-(7-methylpyrazolo [1,5-a]pyridin-3-yl)isoindolin-1-one] |
| > 7.00 | CN1CCN(c2ccc(Nc3ccc(-c4cnc5cccnn45)c4c3C(=O)NC4)nc2)CC1 [I-59, 4-imidazo[1,2-b]pyridazin-3-yl-7-[[5-(4-methylpiperazin-1-yl)-2-pyridyl]amino] isoindolin-1-one] |
| > 7.00 | Cn1ccc2c(-c3ncc(Nc4cccc(N5CC[C@@H](N6CCCC6)C5)n4)c4c3CNC4=O)ccnc21 [I-431, (R)-7-((6-([1,3-bipyrrolidin]-1-yl)pyridin-2-yl)amino)-1-(1-methyl-1H-pyrrolo[2,3-b]pyridin-4-yl)-2,3-dihydro-1H-pyrrolo[3,4-c]pyridin-1-one] |
| > 7.00 | CN(CC1(O)CCCN(c2ccc(Nc3ccc(-c4cnc5cc(F)ccn45)c4c3C(=O)NC4)nc2)C1)C1CC1 (centres unmarked) [I-491, 7-[[5-[3-[[cyclopropyl (methyl)amino]methyl]-3-hydroxy-1-piperidyl]-2-pyridyl]amino] 4-(7-fluoroimidazo [1,2-a]pyridin-3-yl)isoindolin-1-one] |
| > 7.00 | Cn1ccc2c(-c3ncc(Nc4ccc(N5CCO[C@@H](C(C)(C)O)C5)cn4)c4c3CNC4=O)ccnc21 [I-459] |
| > 7.00 | Cn1ccc2c(-c3ccc(Nc4ccc(N5CCNCC5)cn4)c4c3CNC4=O)ncnc21 [I-123, 4-(7-methylpyrrolo [2,3-d]pyrimidin-4-yl)-7-[(5-piperazin-1-yl-2-pyridyl)amino] isoindolin-1-one] |
| > 7.00 | O=C1NCc2c(-c3cnn4cccnc34)ccc(Nc3ccc(N4CCC(O)CC4)cn3)c21 [I-157, 7-[[5-(4-hydroxy-1-piperidyl)-2-pyridyl]amino]-4-pyrazolo[1,5-a]pyrimidin-3-yl-isoindolin-1-one] |
| > 7.00 | CN1CCN(c2ccc(Nc3ccc(-c4cnn5cccnc45)c4c3C(=O)NC4)nc2)CC1 [I-112, 7-[[5-(4-methylpiperazin-1-yl)-2-pyridyl]amino]-4-pyrazolo[1,5-a]pyrimidin-3-yl-isoindolin-1-one] |
| 6.00 to 7.00 | Cc1[nH]c2ccccc2c1-c1ncc(Nc2ccc(N3CCN(C)CC3)cn2)c2c1CNC2=O [I-11, 4-(2-methyl-1H-indol-3-yl)-7-[[5-(4-methylpiperazin-1-yl)-2-pyridyl]amino]-2,3-dihydropyrrolo [3,4-c]pyridin-1-one] |

| SMILES | pIC50 |
| --- | --- |
| O=C1NCc2c(-c3cnc4cc(F)ccn34)ccc(Nc3ccc([C@H]4CCOC4)c(CN4CC[C@H](F)C4)n3)c21 (stereo in doubt) [I-735, 4-(7-fluoroimidazo [1,2-a]pyridin-3-yl)-7-((6-(((S)-3-fluoropyrrol-idin-1-yl)methyl)-5-((S)-tetrahydrofuran-3-yl)pyridin-2-yl)amino)isoin-dolin-1-one] | > 7.00 |
